Laboratory results from ChEMBL document CHEMBL1201862, “PubChem BioAssay data set” (2004).
“And” between values parts separate entries of the source, which are not always exact repeats. Identical values can stand only once. The source made the active and inactive calls.

Key:
Cytochrome P450 3A4 = Cytochrome P450 3A4 (Homo sapiens, UniProt P08684); details: Potency;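 further: confirmatory qHTS run detecting inhibitors and substrates of CYP3A4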
Coagulation factor XII = biological target: T1, Coagulation factor XII (Homo sapiens, UniProt P00748); format: functional;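 further: activated factor XIIa alpha cleaving a fluorogenic AMC peptide substrate; inhibitor potency from loss of enzyme activity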
T1 sequence (P00748 whole entry): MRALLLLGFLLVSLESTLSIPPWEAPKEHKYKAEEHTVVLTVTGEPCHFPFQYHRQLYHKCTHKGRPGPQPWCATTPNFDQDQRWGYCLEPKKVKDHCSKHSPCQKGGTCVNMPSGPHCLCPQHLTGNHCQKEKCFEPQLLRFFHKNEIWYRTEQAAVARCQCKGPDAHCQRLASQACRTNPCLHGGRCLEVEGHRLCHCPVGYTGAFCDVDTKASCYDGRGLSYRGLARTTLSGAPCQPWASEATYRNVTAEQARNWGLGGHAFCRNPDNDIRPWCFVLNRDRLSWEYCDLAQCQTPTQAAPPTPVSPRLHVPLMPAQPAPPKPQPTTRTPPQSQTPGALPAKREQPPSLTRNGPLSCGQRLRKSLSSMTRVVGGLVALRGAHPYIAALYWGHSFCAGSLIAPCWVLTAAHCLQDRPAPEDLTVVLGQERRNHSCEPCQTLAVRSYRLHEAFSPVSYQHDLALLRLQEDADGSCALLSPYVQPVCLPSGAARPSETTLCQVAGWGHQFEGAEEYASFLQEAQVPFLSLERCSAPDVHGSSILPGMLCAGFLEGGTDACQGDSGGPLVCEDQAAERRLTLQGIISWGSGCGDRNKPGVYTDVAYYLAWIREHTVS

[1] = biological target: T2, Alkaline phosphatase, tissue-nonspecific isozyme (Homo sapiens, UniProt P05186); assay: potency against alkaline phosphatase TNAP – biochemical, luminescent, dose response, SAR follow-up (AID 1056)
T2 sequence (P05186 whole entry): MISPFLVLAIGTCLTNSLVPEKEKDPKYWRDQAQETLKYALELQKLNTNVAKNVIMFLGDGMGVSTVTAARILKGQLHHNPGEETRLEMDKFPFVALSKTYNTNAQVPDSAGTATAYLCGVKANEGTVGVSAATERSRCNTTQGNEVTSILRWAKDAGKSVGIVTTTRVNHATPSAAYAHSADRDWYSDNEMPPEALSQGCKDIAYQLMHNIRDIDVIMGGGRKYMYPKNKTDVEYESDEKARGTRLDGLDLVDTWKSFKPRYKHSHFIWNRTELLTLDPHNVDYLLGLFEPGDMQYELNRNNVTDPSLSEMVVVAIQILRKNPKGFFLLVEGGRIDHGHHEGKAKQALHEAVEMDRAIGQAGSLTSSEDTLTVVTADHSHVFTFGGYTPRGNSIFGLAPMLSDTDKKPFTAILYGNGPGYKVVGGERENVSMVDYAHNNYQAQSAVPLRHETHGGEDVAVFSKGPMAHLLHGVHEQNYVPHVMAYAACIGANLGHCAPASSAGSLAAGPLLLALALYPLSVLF

[2] = biological target: Glyceraldehyde-3-phosphate dehydrogenase (Homo sapiens, UniProt P04406)
[3] = biological target: G-protein coupled receptor 55 (Homo sapiens, UniProt Q9Y2T6); assay: inhibition of LPI-stimulated GPR55 beta-arrestin translocation – imaging, U2OS, beta-arrestin-GFP, LPI agonist, primary screen (AID 2013); format: functional;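 further: antagonist potency measured as reduced agonist-driven arrestin aggregation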
[4] = Luminescent dose response cell-based high throughput screening assay for inhibitors of the Janus kinase 2 mutant JAK2V617F. [Related pubchem assays: 1446 (Primary screen.), 1521 (Confirmation assay.), 1486 (Counter screen.)]; format: functional
[5] = biological target: T3, Heat shock factor protein 1 (Mus musculus, UniProt P38532); assay: decrease of HSF1-responsive luciferase luminescence – cell-based, NIH3T3, dose retest, confirmation (AID 2382); format: functional;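 further: NIH3T3 fibroblasts with HSF1-driven luciferase reporter stressed by proteasome inhibitor MG132; luminescence from HSF1-driven luciferase expression after 8 hours of MG132 stress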
T3 sequence (P38532 whole entry): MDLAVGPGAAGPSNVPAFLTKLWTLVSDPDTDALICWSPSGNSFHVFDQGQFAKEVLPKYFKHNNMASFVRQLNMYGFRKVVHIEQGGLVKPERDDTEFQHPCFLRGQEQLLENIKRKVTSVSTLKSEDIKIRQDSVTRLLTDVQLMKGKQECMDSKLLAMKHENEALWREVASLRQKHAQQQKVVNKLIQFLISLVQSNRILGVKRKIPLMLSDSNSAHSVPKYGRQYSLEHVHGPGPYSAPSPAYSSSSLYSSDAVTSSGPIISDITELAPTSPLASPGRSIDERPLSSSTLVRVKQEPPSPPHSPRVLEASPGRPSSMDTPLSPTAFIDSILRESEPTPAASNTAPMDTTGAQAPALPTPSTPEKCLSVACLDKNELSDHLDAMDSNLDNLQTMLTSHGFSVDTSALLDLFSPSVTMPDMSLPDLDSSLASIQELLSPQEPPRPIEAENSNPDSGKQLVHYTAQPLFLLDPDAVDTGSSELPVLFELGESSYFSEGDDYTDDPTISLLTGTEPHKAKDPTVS

Protein RecA = biological target: T4, Protein RecA (Mycobacterium tuberculosis, UniProt P9WHJ3); assay: Fluorescence Cell-Free Homogeneous Dose Retest to Identify Inhibitors of RecA-Intein Splicing Activity. [Related pubchem assays (depositor defined):AID2097, AID2223, AID489010, AID492950]; format: functional
T4 sequence (P9WHJ3 whole entry): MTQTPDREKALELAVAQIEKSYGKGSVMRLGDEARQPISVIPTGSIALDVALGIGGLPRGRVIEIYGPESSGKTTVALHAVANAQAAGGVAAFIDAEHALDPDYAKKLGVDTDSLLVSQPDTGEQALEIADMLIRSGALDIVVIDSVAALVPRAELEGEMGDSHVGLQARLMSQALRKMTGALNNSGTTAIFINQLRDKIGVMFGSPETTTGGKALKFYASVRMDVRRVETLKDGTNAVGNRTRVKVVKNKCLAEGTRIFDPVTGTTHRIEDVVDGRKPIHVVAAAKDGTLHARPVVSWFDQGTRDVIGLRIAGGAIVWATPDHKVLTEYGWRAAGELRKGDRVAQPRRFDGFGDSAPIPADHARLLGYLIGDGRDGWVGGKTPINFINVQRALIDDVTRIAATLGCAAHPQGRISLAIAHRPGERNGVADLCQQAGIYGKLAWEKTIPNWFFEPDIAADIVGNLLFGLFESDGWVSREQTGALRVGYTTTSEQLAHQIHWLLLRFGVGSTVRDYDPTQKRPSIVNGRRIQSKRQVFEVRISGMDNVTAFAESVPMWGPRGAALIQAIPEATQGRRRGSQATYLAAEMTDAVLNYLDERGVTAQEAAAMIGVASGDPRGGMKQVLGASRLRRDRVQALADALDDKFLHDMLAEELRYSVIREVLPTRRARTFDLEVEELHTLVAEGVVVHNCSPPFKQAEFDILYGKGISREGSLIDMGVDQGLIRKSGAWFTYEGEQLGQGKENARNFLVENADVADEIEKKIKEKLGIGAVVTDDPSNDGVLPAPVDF

[6] = Luminescence Cell-Based Dose Confirmation HTS to Identify Activators of 5'UTR Stem-Loop Driven Alpha-Synuclein mRNA Translation in H4 Neuroglioblastoma Cells. [Related pubchem assays: 1829 (Project Summary), 1814 (Primary HTS)]; format: functional
H4 = assay: Luminescence Cell-Based Dose Response HTS to Identify Activators of 5'UTR Stem-Loop Driven Prion Protein mRNA Translation in H4 Neuroglioblastoma Cells. [Related pubchem assays: 1829 (Project Summary), 1814 (Primary HTS)]; format: functional; details: Homo sapiens
[7] = Luminescence Cell-Based Dose Response HTS to Identify Activators of Luciferase Translation or Activity in H4 […] Cells. [Related pubchem assays: 1829 (Project Summary), 1814 (Primary HTS)]; format: functional
Aminopeptidase N = biological target: T5, Aminopeptidase N (Plasmodium falciparum FcB1/Columbia, UniProt O96935); assay: malaria alanyl aminopeptidase activity blockers – biochemical, fluorogenic H-Leu-NHMec substrate, 1536-well (AID 1445); parameters: species or system Plasmodium falciparum 3D7, 3D7
T5 sequence (O96935 whole entry): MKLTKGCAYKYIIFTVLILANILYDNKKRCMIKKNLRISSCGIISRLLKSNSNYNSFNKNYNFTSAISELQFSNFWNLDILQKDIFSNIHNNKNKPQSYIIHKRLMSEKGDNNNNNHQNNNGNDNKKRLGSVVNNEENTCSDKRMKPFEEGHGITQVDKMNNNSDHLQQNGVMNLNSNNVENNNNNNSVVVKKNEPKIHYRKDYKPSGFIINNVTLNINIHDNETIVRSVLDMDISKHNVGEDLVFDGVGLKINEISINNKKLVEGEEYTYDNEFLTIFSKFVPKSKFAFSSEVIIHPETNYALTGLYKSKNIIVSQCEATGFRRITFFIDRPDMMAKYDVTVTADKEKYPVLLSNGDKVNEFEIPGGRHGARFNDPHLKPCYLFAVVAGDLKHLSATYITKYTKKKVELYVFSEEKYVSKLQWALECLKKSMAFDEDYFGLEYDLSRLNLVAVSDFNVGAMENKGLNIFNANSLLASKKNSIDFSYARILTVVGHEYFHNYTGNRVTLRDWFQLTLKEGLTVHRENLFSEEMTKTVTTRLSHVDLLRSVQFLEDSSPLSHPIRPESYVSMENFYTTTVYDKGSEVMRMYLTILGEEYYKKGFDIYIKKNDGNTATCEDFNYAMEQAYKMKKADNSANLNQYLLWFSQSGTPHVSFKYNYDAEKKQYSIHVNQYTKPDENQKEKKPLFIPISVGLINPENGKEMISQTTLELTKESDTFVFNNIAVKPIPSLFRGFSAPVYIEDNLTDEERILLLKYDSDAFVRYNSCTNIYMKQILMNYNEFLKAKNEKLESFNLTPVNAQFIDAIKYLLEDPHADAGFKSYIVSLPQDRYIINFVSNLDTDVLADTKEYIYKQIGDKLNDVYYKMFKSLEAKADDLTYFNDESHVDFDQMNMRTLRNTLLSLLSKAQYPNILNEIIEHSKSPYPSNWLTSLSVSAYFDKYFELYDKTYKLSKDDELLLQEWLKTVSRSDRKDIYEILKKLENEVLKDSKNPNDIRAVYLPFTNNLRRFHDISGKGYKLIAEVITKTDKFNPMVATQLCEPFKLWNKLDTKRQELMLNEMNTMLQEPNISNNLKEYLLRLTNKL

[8] = Luminescence Cell-Based Dose Retest to Confirm Inhibitors of Cancer Stem Cells. [Related pubchem assays (depositor defined):AID2717, AID2721]; format: functional; details: Homo sapiens
[9] = biological target: T6, Microphthalmia-associated transcription factor (Homo sapiens, UniProt O75030); assay: reducers of TRPM1 reporter luminescence, concentration series – cell-based, SK-MEL-5, cherry-picked, set 3, MITF inhibitor project, dose response (AID 493073); format: functional;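 further: SK-MEL-5 melanoma cells with luciferase driven by the MITF target TRPM1 promoter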
T6 sequence (O75030 whole entry): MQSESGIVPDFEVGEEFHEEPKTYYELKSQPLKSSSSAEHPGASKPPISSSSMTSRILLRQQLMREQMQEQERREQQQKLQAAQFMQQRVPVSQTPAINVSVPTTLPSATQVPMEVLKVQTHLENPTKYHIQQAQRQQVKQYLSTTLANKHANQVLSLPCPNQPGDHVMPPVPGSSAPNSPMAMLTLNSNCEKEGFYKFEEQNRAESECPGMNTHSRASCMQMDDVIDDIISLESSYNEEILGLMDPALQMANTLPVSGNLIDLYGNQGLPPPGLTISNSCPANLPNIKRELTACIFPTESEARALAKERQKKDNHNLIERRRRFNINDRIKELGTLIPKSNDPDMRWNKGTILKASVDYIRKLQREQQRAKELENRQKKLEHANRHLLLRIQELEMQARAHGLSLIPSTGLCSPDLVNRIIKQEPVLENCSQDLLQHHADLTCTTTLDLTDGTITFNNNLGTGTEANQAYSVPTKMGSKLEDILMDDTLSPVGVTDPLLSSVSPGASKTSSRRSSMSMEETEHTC

Chain of Cytochrome P450 3A4 (P08684 whole entry): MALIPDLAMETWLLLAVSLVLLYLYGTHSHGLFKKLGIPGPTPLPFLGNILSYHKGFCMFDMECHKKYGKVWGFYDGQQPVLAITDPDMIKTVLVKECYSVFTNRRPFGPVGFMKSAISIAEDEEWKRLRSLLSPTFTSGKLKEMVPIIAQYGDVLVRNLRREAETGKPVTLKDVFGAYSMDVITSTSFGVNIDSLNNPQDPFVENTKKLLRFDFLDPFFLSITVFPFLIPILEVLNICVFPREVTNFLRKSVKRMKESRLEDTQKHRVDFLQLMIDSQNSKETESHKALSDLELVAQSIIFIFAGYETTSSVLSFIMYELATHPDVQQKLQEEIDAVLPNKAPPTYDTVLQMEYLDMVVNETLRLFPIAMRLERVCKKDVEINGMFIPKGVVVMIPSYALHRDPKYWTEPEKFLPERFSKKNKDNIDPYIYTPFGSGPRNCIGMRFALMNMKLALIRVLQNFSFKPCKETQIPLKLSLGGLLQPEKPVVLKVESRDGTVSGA
Chain of G-protein coupled receptor 55 (Q9Y2T6 whole entry): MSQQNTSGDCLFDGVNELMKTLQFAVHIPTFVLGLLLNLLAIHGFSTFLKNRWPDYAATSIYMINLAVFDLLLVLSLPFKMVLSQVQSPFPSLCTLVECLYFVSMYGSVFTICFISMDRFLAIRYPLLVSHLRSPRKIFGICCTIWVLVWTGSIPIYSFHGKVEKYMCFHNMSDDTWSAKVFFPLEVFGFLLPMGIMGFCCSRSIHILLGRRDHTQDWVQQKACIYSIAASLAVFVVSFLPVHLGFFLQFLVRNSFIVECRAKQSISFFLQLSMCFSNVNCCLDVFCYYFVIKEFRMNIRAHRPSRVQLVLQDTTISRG
Chain of Glyceraldehyde-3-phosphate dehydrogenase (P04406 whole entry): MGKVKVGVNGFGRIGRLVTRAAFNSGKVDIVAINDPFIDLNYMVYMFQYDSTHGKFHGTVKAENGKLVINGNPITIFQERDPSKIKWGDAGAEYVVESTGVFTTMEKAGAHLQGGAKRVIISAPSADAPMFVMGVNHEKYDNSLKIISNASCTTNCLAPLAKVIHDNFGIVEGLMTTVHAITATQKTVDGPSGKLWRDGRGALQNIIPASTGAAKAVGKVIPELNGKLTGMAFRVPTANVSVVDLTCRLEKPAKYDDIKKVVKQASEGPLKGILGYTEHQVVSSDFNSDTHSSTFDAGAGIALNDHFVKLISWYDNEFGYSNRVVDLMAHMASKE

## CNNC
Cytochrome P450 3A4
  AC50: 31.6 µM (inconclusive)

## Oc1c2nc3cccc(Cl)c3c-2ncn1CCN1CCCCC1
Coagulation factor XII
  IC50: > 50 µM (inactive)

## Cn1c(-c2ccccc2)cnc1SCC(N)=O
Coagulation factor XII
  IC50: > 50 µM (inactive)

## C=C(C)C(O)/C=C/c1ccccc1OC (stereo not given)
Cytochrome P450 3A4
  AC50: 2.51 µM (inconclusive)

## COc1ccccc1NC(=O)CSc1nnnn1C
Coagulation factor XII
  IC50: > 50 µM (inactive)

## NCc1cc(-c2cccnc2)n[nH]1
[1]
  IC50: > 100 µM (inactive)
[2]
  IC50: > 100 µM (not active)

## O=C(Nc1ccccc1N1CCCCC1)c1ccc(N2C(=O)c3ccccc3C2=O)cc1
[3]
  IC50: 1.99 µM (active)

## O=C(CCl)N(C/C=C/c1ccccc1)c1ccc2c(c1)OCCO2
[4]
  IC50: 605 nM (active)
[5]
  EC50: 1.67 µM (active)
Protein RecA
  EC50: 356 nM (active)

## COC(=O)c1ccc(C23CC4(C2)[C@H](CN(C)[C@@H]4c2ccccc2)C3c2ccc(C(F)(F)F)cc2)cc1 (stereo not given in full)
Cytochrome P450 3A4
  AC50: 15.8 µM (inconclusive)

## COc1ccc(OC)c(NS(=O)(=O)c2ccc(SC)cc2)c1
[4]
  IC50: 3350 nM (active)
[6]
  EC50: > 120 µM (not active)
H4
  EC50: 44.8 µM (active)
[7]
  EC50: 6.98 µM (active)

## NS(=O)(=O)c1ccc(CCNC(=O)COC(=O)CCSc2ccc(Cl)cc2)cc1
Aminopeptidase N
  IC50: 46.8 µM (active)

## CCCN1[C@H](C(=O)OC)C[C@@H]2CC[C@@H](O)C[C@@H]21
Cytochrome P450 3A4
  AC50: 15.8 µM (inconclusive)

## CCOC(=O)C1=C(Nc2ccc(OC)cc2)S/C(=C\c2ccc(OCC(=O)O)c(OC)c2)C1=O
Aminopeptidase N
  IC50: 87.3 µM (active)

## COC(=O)[C@@H]1C[C@@H]2CC[C@@H](O)C[C@@H]2N1Cc1ccc(N2CCOCC2)cc1
Cytochrome P450 3A4
  AC50: 3.98 µM (inconclusive)

## CCCCc1cc(=O)oc2cc(C)cc(OCc3nn[nH]n3)c12
Aminopeptidase N
  IC50: 63.6 µM (active)

## O=S(=O)(Nc1ccc2ccccc2c1)c1cc(Cl)ccc1Cl
[1]
  IC50: > 100 µM (inactive) and > 10 µM (inactive)
[2]
  IC50: > 100 µM (not active)

## CC(C)(C)C(=O)N1N=C(Nc2ccccc2)SC1(C)C
Coagulation factor XII
  IC50: > 50 µM (inactive)

## CN(CC(O)CON=C1c2ccccc2-c2ccccc21)S(=O)(=O)c1ccc(Br)cc1 (stereo not given)
[3]
  IC50: 2.14 µM (active)
[8]
  AC50: 4.11 µM (active)

## CC(C)CN=C(NS(=O)(=O)c1ccccc1)C(Cl)(Cl)Cl
[9]
  AC50: 11.1 µM (active)
[3]
  IC50: 2.02 µM (active)
[5]
  EC50: 7.41 µM (active)
[8]
  AC50: 2.15 µM (active)
